The text below walks through data of DBAASP.

Each structure is given as a SMILES string. Values after ≈ are worked out from the molar mass of the structure shown. Values joined by “and” are separate entries in the source; they are usually repeats but may differ in a detail not shown here. Equal values may be shown once.

What all share (assay): ≥ marks a high value that may be exact or a test limit, other limits are often not marked, values filed in µg/mL are converted to µM
Assay [1] concerns Escherichia coli UB1005.
Assay [2] relates to Lactiplantibacillus plantarum 8014.
The test system of assay [3] is Lacticaseibacillus rhamnosus 7469.
For assay [4], the system named is Pseudomonas aeruginosa ATCC 27853.
In assay [5] the test system is Lacticaseibacillus rhamnosus 1.0925.
For assay [6], the system named is Lacticaseibacillus rhamnosus 1.0386.
Assay [7] deals with Lacticaseibacillus rhamnosus 1.0385.
Assay [8] deals with Lacticaseibacillus rhamnosus 1.0911.
Assay [9] concerns Staphylococcus epidermidis ATCC 12228.
Assay [10] deals with Staphylococcus aureus ATCC 43300.
The test system of assay [11] is Pseudomonas putida NBRC 100650.
Assay [12] relates to Aspergillus oryzae NBRC 100959.
Assay [13] deals with Candida viswanathii NBRC 10321.
The test system of assay [14] is Escherichia coli NBRC 3972.
Assay [15] relates to Staphylococcus epidermidis NBRC 12993.
Assay [16] has as its system Micrococcus luteus NBRC 3333.
In assay [17] the test system is Aeromonas hydrophila ATCC 35654.
Assay [18] relates to Staphylococcus aureus ATCC 25923.
The subject of assay [19] is Escherichia coli ATCC 25922.
Assay [20] relates to Micrococcus luteus ATCC 49732.
Assay [21] relates to Escherichia coli ATCC 11229.
The test system of assay [22] is Klebsiella pneumoniae ATCC 13866.
The subject of assay [23] is Staphylococcus aureus ATCC 33591.
In assay [24] the test system is Staphylococcus aureus ATCC 29213.
Assay [25] concerns Escherichia coli.
Assay [26] has as its system Candida parapsilosis ATCC 22019.
In assay [27] the test system is Staphylococcus aureus.
Assay [28] concerns Trichophyton rubrum ATCC 28189.
The test system of assay [29] is Candida albicans ATCC 24433.
The test system of assay [30] is Cladosporium sp.
Assay [31] relates to Penicillium expansum.
The test system of assay [32] is Cryptococcus neoformans.
Assay [33] relates to Escherichia coli SBS 363.
The test system of assay [34] is Micrococcus luteus A270.
Assay [35] relates to Escherichia coli E423-17.
For assay [36], the system named is Staphylococcus aureus M838-17.
Assay [37] has as its system Escherichia coli E416-17.
In assay [38] the test system is Escherichia coli K-12.
In assay [39] the test system is Staphylococcus aureus USA 300.
Assay [40] relates to Escherichia coli DH5alpha.
The test system of assay [41] is Pseudomonas aeruginosa NBRC 13275.
The subject of assay [42] is Staphylococcus aureus NBRC 13276.
Assay [43] relates to Staphylococcus epidermidis NBRC 12298.

As a reminder, the MIC is the lowest concentration found to suppress growth. Lower therefore signals a more susceptible organism. For `NC(=O)[C@H](CCCN=C(N)N)NC(=O)[C@H](CCCN=C(N)N)NC(=O)[C@H](Cc1c[nH]c2ccccc12)NC(=O)[C@H](CO)NC(=O)[C@H](Cc1c[nH]c2ccccc12)NC(=O)[C@H](Cc1c[nH]c2ccccc12)NC(=O)[C@H](Cc1c[nH]c2ccccc12)NC(=O)[C@H](CO)NC(=O)[C@H](Cc1c[nH]c2ccccc12)NC(=O)[C@H](CCCN=C(N)N)NC(=O)[C@@H](N)CCCN=C(N)N` [RRWSWWWSWRR], the MIC is 2 µM (≈ 3.49 µg/mL) in [1]; no less than 64 µM in [2]; no less than 64 µM in assay [3]; 4 µM (≈ 6.99 µg/mL) in assay [4]; no less than 64 µM in assay [5]; no less than 64 µM in assay [6]. The MIC in assay [7] was no less than 64 µM; in [8], no less than 64 µM; in [9], 4 µM (≈ 6.99 µg/mL); in assay [10] it was 2 µM (≈ 3.49 µg/mL).

Turning to `CC[C@H](C)[C@H](NC(=O)[C@H](CCCCN)NC(=O)[C@@H](N)CCCN=C(N)N)C(=O)N[C@@H](CCCCN)C(=O)N[C@H](C(=O)N[C@@H](Cc1ccc(O)cc1)C(=O)N[C@@H](CC(C)C)C(=O)N[C@@H](CCCN=C(N)N)C(=O)N[C@@H](CCCN=C(N)N)C(=O)N[C@@H](CCSC)C(=O)N[C@@H](CCCCN)C(=O)O)C(C)C` [RKIKVYLRRMK], the MIC in assay [11] was no less than 33.5 µM; in [12], 8.38 µM (≈ 12.5 µg/mL); in [13], 8.38 µM (≈ 12.5 µg/mL); in assay [14], 8.38 µM (≈ 12.5 µg/mL); in assay [15], no less than 33.5 µM; in assay [16], 8.38 µM (≈ 12.5 µg/mL).

For `CC[C@H](C)[C@H](NC(=O)[C@H](CC(C)C)NC(=O)[C@H](CCC(N)=O)NC(=O)[C@@H](NC(=O)[C@H](CCCN=C(N)N)NC(=O)[C@@H](NC(=O)[C@H](CS)NC(=O)[C@H](CCCCN)NC(=O)[C@@H](N)CCCN=C(N)N)C(C)C)C(C)C)C(=O)N[C@@H](CCCCN)C(=O)N[C@@H](CC(N)=O)C(=O)NCC(=O)N[C@@H](CCCCN)C(=O)N[C@@H](CCCCN)C(=O)N[C@H](C(=O)N[C@H](C(=O)N[C@@H](C)C(=O)N[C@@H](Cc1ccccc1)C(N)=O)[C@@H](C)O)[C@@H](C)CC` [RKCVRVQLIKNGKKITAF], the MIC came out at 8.4 µM (≈ 17.7 µg/mL) in assay [17], 7.2 µM (≈ 15.1 µg/mL) in [18], 8.4 µM (≈ 17.7 µg/mL) in assay [19] and 7.2 µM (≈ 15.1 µg/mL) in [20].

For `CC[C@H](C)[C@H](NC(=O)CN)C(=O)N[C@@H](C)C(=O)NCC(=O)N[C@@H](CC(C)C)C(=O)N[C@@H](CC(C)C)C(=O)N[C@@H](CCCN=C(N)N)C(=O)N[C@@H](CO)C(=O)N[C@@H](Cc1ccccc1)C(=O)N[C@H](C(=O)N[C@@H](CCCN=C(N)N)C(=O)N[C@@H](CCSC)C(=O)N[C@@H](CC(C)C)C(=O)N[C@@H](C)C(=O)N[C@@H](CCCCN)C(=O)N[C@H](C(=O)N[C@@H](CCSC)C(=O)NCC(=O)NCC(=O)O)[C@@H](C)CC)C(C)C` [GIAGLLRSFVRMLAKIMGG], the MIC in assay [21] is no less than 32.2 µM; in [4], 8.04 µM (≈ 16 µg/mL); in assay [18], 32.2 µM (≈ 64 µg/mL); in [22] it was no less than 32.2 µM; in [9], 32.2 µM (≈ 64 µg/mL); in assay [23] it was no less than 64.3 µM. In assay [24], this molecule registered an MIC of 32.2 µM (≈ 64 µg/mL).

For the molecule `CC[C@H](C)[C@H](NC(=O)[C@H](CCCCN)NC(=O)[C@H](CCC(=O)O)NC(=O)[C@H](CO)NC(=O)[C@H](CCCN=C(N)N)NC(=O)[C@@H](N)CO)C(=O)N[C@H](C(=O)N[C@@H](Cc1cnc[nH]1)C(=O)N[C@@H](CCC(N)=O)C(=O)N[C@@H](CC(C)C)C(=O)N[C@@H](Cc1ccccc1)C(N)=O)C(C)C` [SRSEKIVHQLF], the MIC in assay [25] is greater than 298 µM; in assay [26], no less than 298 µM; in [27], greater than 298 µM; in assay [28] it was no less than 298 µM; in assay [29] it was no less than 298 µM.

For the molecule `CSCC[C@H](NC(=O)CNC(=O)[C@H](Cc1ccccc1)NC(=O)[C@H](Cc1ccccc1)NC(=O)CNC(=O)[C@H](C)NC(=O)[C@H](C)NC(=O)[C@@H]1CCCN1C(=O)[C@H](C)N)C(=O)N[C@@H](CCCN=C(N)N)C(=O)O` [APAAGFFGMR], the MIC in assay [30] was no less than 164 µM; in assay [31], no less than 164 µM; in [4], 164 µM and > 82 µM; in assay [32] it was no less than 164 µM; in [33], no less than 82 µM; in [34], no less than 164 µM.

For `CC(C)C[C@H](NC(=O)[C@H](Cc1c[nH]c2ccccc12)NC(=O)[C@H](Cc1c[nH]c2ccccc12)NC(=O)[C@@H](N)Cc1c[nH]c2ccccc12)C(=O)N[C@@H](CCCN=C(N)N)C(=O)N[C@@H](CCCN=C(N)N)C(=O)N[C@@H](CCCN=C(N)N)C(=O)N[C@@H](Cc1c[nH]c2ccccc12)C(=O)O` [WWWLRRRW], the MIC in [35] was no less than 32 µM; in assay [19], 16 µM (≈ 21.5 µg/mL); in assay [36] it was 4 µM (≈ 5.38 µg/mL); in assay [37], 16 µM (≈ 21.5 µg/mL); in assay [38], 16 µM (≈ 21.5 µg/mL); in assay [39], 4 µM (≈ 5.38 µg/mL).

For the molecule `CC[C@H](C)[C@H](NC(=O)CN)C(=O)N[C@@H](CCCCN)C(=O)N[C@@H](CCCCN)C(=O)N[C@@H](Cc1ccccc1)C(=O)N[C@@H](CC(C)C)C(=O)N[C@@H](CCCCN)C(=O)N[C@@H](CO)C(=O)N[C@@H](C)C(=O)N[C@@H](CCCCN)C(=O)N[C@@H](CCCCN)C(=O)N[C@@H](Cc1ccccc1)C(=O)N[C@H](C(=O)N[C@@H](CCCCN)C(=O)N[C@@H](C)C(=O)N[C@@H](Cc1ccccc1)C(=O)N[C@@H](CCCCN)C(N)=O)C(C)C` [GIKKFLKSAKKFVKAFK], the minimal inhibitory concentration (MIC) in [40] was 3.12 µM (≈ 6.15 µg/mL); in [41] it was 1.56 µM (≈ 3.07 µg/mL); in assay [42] it was 6.25 µM (≈ 12.3 µg/mL); in assay [43] it was 3.12 µM (≈ 6.15 µg/mL).
